What was measured:
Assay type in all cases: in vivo
[1] = system: ABUTH, Velvetleaf, Abutilon theophrasti, Medic.; assay: Postemergence herbicidal evaluation (Example 147); conditions: rating scale 0-9, two to three weeks after treatment
In short: (§1)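 Values are 0-9 visual scores, averaged over repeat tests where available. Seedlings of about two weeks were sprayed with roughly 0.016 to 0.032 kg/ha in 80/20 acetone/water plus 1.0% seed oil, then held in the greenhouse two to three weeks.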

[2] = system: ALOMY, Blackgrass, Alopecurus myosuroides; assay: Postemergence herbicidal evaluation (Example 147); conditions: rating scale 0-9, two to three weeks after treatment
In short: as §1

[3] = system: AMBEL, Ragweed, Common, Ambrosia artemiisifolia, L.; assay: Postemergence herbicidal evaluation (Example 147); conditions: rating scale 0-9, two to three weeks after treatment
In short: as §1

[4] = system: CHEAL, Lambsquarters, Chenopodium album, L. Common; assay: Postemergence herbicidal evaluation (Example 147); conditions: rating scale 0-9, two to three weeks after treatment
In short: as §1

[5] = system: DIGSA, Crabgrass, (Hairy) L, Digitaria sanguinalis, (L)Scop; assay: Postemergence herbicidal evaluation (Example 147); conditions: rating scale 0-9, two to three weeks after treatment
In short: as §1

[6] = system: ECHCG, Barnyardgrass, Echinochloa crusgalli, (L.)Beau; assay: Postemergence herbicidal evaluation (Example 147); conditions: rating scale 0-9, two to three weeks after treatment
In short: as §1

[7] = system: GLXMA, Soybean, Glycine max, (L.) Merr.; assay: Postemergence herbicidal evaluation (Example 147); conditions: rating scale 0-9, two to three weeks after treatment
In short: as §1

[8] = system: IPOHE, Morningglory, Ivyleaf, Ipomoea hederacea, (L)Jacq.; assay: Postemergence herbicidal evaluation (Example 147); conditions: rating scale 0-9, two to three weeks after treatment
In short: as §1

[9] = system: SETVI, Green foxtail, Setaria viridis, (L.)Beau; assay: Postemergence herbicidal evaluation (Example 147); conditions: rating scale 0-9, two to three weeks after treatment
In short: as §1

[10] = system: TRZAW, Winter wheat, Tritium Aestivum, L. (Winter); assay: Postemergence herbicidal evaluation (Example 147); conditions: rating scale 0-9, two to three weeks after treatment
In short: as §1

[11] = system: XANST, Cocklebur, Xanthium strumariam; assay: Postemergence herbicidal evaluation (Example 147); conditions: rating scale 0-9, two to three weeks after treatment
In short: as §1

[12] = system: ZEAMX, Field corn, Zea mays L.; assay: Postemergence herbicidal evaluation (Example 147); conditions: rating scale 0-9, two to three weeks after treatment
In short: as §1

[13] = system: ABUTH, Velvetleaf, Abutilon theophrasti, Medic.; assay: Preemergence herbicidal evaluation (Example 148); conditions: rating scale 0-9, two to four weeks after treatment
In short: (§2)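 Seeds mixed with potting soil and planted in cups, then sprayed preemergence with aqueous acetone solution of test compound at about 0.125 to 0.250 kg per hectare. Kept under greenhouse conditions; visual rating versus untreated control 2–4 weeks after treatment, scoring stand, vigor, malformation, size and chlorosis. Repeat tests averaged.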

[14] = system: ALOMY, Blackgrass, Alopecurus myosuroides; assay: Preemergence herbicidal evaluation (Example 148); conditions: rating scale 0-9, two to four weeks after treatment
In short: as §2

[15] = system: AMBEL, Ragweed, Common, Ambrosia artemiisifolia, L.; assay: Preemergence herbicidal evaluation (Example 148); conditions: rating scale 0-9, two to four weeks after treatment
In short: as §2

[16] = system: CHEAL, Lambsquarters, Chenopodium album, L. Common; assay: Preemergence herbicidal evaluation (Example 148); conditions: rating scale 0-9, two to four weeks after treatment
In short: as §2

[17] = system: DIGSA, Crabgrass, (Hairy) L, Digitaria sanguinalis, (L)Scop; assay: Preemergence herbicidal evaluation (Example 148); conditions: rating scale 0-9, two to four weeks after treatment
In short: as §2

[18] = system: ECHCG, Barnyardgrass, Echinochloa crusgalli, (L.)Beau; assay: Preemergence herbicidal evaluation (Example 148); conditions: rating scale 0-9, two to four weeks after treatment
In short: as §2

[19] = system: GLXMA, Soybean, Glycine max, (L.) Merr.; assay: Preemergence herbicidal evaluation (Example 148); conditions: rating scale 0-9, two to four weeks after treatment
In short: as §2

[20] = system: IPOHE, Morningglory, Ivyleaf, Ipomoea hederacea, (L)Jacq.; assay: Preemergence herbicidal evaluation (Example 148); conditions: rating scale 0-9, two to four weeks after treatment
In short: as §2

[21] = system: SETVI, Green foxtail, Setaria viridis, (L.)Beau; assay: Preemergence herbicidal evaluation (Example 148); conditions: rating scale 0-9, two to four weeks after treatment
In short: as §2

[22] = system: TRZAW, Winter wheat, Tritium Aestivum, L. (Winter); assay: Preemergence herbicidal evaluation (Example 148); conditions: rating scale 0-9, two to four weeks after treatment
In short: as §2

[23] = system: XANST, Cocklebur, Xanthium strumariam; assay: Preemergence herbicidal evaluation (Example 148); conditions: rating scale 0-9, two to four weeks after treatment
In short: as §2

[24] = system: ZEAMX, Field corn, Zea mays L.; assay: Preemergence herbicidal evaluation (Example 148); conditions: rating scale 0-9, two to four weeks after treatment
In short: as §2

With `C#CCN(C)S(=O)(=O)NC(=O)c1cc(-n2c(=O)cc(C(F)(F)F)n(C)c2=O)c(F)cc1Cl` [Example 57] the “Postemergence herbicidal rating ABUTH” value ([1]; rate 0.016 kg/ha) was 2.0, the “Postemergence herbicidal rating ABUTH” value ([1]; rate 0.032 kg/ha) was 5.0 and the “Postemergence herbicidal rating ALMOY” value ([2]; rate 0.016 kg/ha) was 0.0. For the same compound, the “Postemergence herbicidal rating ALMOY” value ([2]; rate 0.032 kg/ha) was 1.0, the “Postemergence herbicidal rating AMBEL” value ([3]; rate 0.016 kg/ha) was 1.0 and the “Postemergence herbicidal rating AMBEL” value ([3]; rate 0.032 kg/ha) was 2.0. For the same compound, the “Postemergence herbicidal rating CHEAL” value ([4]; rate 0.016 kg/ha) was 1.0, the “Postemergence herbicidal rating CHEAL” value ([4]; rate 0.032 kg/ha) was 2.0 and the “Postemergence herbicidal rating DIGSA” value ([5]; rate 0.016 kg/ha) was 1.0. The “Postemergence herbicidal rating DIGSA” value ([5]; rate 0.032 kg/ha) was 2.0, the “Postemergence herbicidal rating ECHCG” value ([6]; rate 0.016 kg/ha) was 1.0 and the “Postemergence herbicidal rating ECHCG” value ([6]; rate 0.032 kg/ha) was 2.0. The “Postemergence herbicidal rating GLXMA” value ([7]; rate 0.016 kg/ha) was 6.0, the “Postemergence herbicidal rating GLXMA” value ([7]; rate 0.032 kg/ha) was 6.5 and the “Postemergence herbicidal rating IPOHE” value ([8]; rate 0.016 kg/ha) was 6.0. For the same compound, the “Postemergence herbicidal rating IPOHE” value ([8]; rate 0.032 kg/ha) was 4.0, the “Postemergence herbicidal rating SETVI” value ([9]; rate 0.016 kg/ha) was 1.0 and the “Postemergence herbicidal rating SETVI” value ([9]; rate 0.032 kg/ha) was 3.0. The “Postemergence herbicidal rating TRZAW” value ([10]; rate 0.016 kg/ha) was 2.0, the “Postemergence herbicidal rating TRZAW” value ([10]; rate 0.032 kg/ha) was 2.5 and the “Postemergence herbicidal rating XANST” value ([11]; rate 0.016 kg/ha) was 2.0. The “Postemergence herbicidal rating XANST” value ([11]; rate 0.032 kg/ha) was 3.0, the “Postemergence herbicidal rating ZEAMX” value ([12]; rate 0.016 kg/ha) was 2.0 and the “Postemergence herbicidal rating ZEAMX” value ([12]; rate 0.032 kg/ha) was 5.0. The “Preemergence herbicidal rating ABUTH” value ([13]; rate 0.125 kg/ha) was 2.0, the “Preemergence herbicidal rating ABUTH” value ([13]; rate 0.25 kg/ha) was 2.0 and the “Preemergence herbicidal rating ALMOY” value ([14]; rate 0.125 kg/ha) was 0.0. The “Preemergence herbicidal rating ALMOY” value ([14]; rate 0.25 kg/ha) was 0.0, the “Preemergence herbicidal rating AMBEL” value ([15]; rate 0.125 kg/ha) was 2.0 and the “Preemergence herbicidal rating AMBEL” value ([15]; rate 0.25 kg/ha) was 2.0. The “Preemergence herbicidal rating CHEAL” value ([16]; rate 0.125 kg/ha) was 6.0, the “Preemergence herbicidal rating CHEAL” value ([16]; rate 0.25 kg/ha) was 8.0 and the “Preemergence herbicidal rating DIGSA” value ([17]; rate 0.125 kg/ha) was 1.0. The “Preemergence herbicidal rating DIGSA” value ([17]; rate 0.25 kg/ha) was 3.0, the “Preemergence herbicidal rating ECHCG” value ([18]; rate 0.125 kg/ha) was 1.0 and the “Preemergence herbicidal rating ECHCG” value ([18]; rate 0.25 kg/ha) was 2.0. The “Preemergence herbicidal rating GLXMA” value ([19]; rate 0.125 kg/ha) was 0.0, the “Preemergence herbicidal rating GLXMA” value ([19]; rate 0.25 kg/ha) was 1.0 and the “Preemergence herbicidal rating IPOHE” value ([20]; rate 0.125 kg/ha) was 0.0. For the same compound, the “Preemergence herbicidal rating IPOHE” value ([20]; rate 0.25 kg/ha) was 3.0, the “Preemergence herbicidal rating SETVI” value ([21]; rate 0.125 kg/ha) was 0.0 and the “Preemergence herbicidal rating SETVI” value ([21]; rate 0.25 kg/ha) was 1.0. For the same compound, the “Preemergence herbicidal rating TRZAW” value ([22]; rate 0.125 kg/ha) was 0.0, the “Preemergence herbicidal rating TRZAW” value ([22]; rate 0.25 kg/ha) was 0.0 and the “Preemergence herbicidal rating XANST” value ([23]; rate 0.125 kg/ha) was 0.0. The “Preemergence herbicidal rating XANST” value ([23]; rate 0.25 kg/ha) was 0.0, the “Preemergence herbicidal rating ZEAMX” value ([24]; rate 0.125 kg/ha) was 0.0 and the “Preemergence herbicidal rating ZEAMX” value ([24]; rate 0.25 kg/ha) was 0.0.
